≈ marks a conversion by molar mass, not a printed value.

The test system of the assay is Mycobacterium tuberculosis. In words: Antimicrobial activity against Mycobacterium tuberculosis H37Rv after 7 days by microplate alamar blue assay. It is filed as functional. To be noted: 168 h.
On to `c1ccc(-c2cc(Cn3cc(Cn4ccc5cncnc54)nn3)cc(-c3ccccc3)n2)cc1`, for which the MIC came out at 6.25 µg/mL (≈ 14.1 µM). `c1ccc(Sc2ccccc2-n2cc(Cn3ccc4cncnc43)nn2)cc1`: the MIC is 6.25 µg/mL (≈ 16.3 µM).

For `Fc1ccc(-c2cc(Cn3cc(Cn4ccc5cncnc54)nn3)on2)cc1`, the MIC worked out at 0.78 µg/mL (≈ 2.08 µM).

In the case of `Clc1ccc(Cn2cc(Cn3ccc4cncnc43)nn2)cc1`, the lowest concentration to inhibit growth (MIC) was 3.12 µg/mL (≈ 9.61 µM).

`COc1cccc(-n2cc(Cn3ccc4cncnc43)nn2)c1[N+](=O)[O-]` yielded an MIC of 25 µg/mL (≈ 71.2 µM). Consider `O=C(O)c1cn(C2CC2)c2cc(N3CCNCC3)c(F)cc2c1=O` [CIPROFLOXACIN], for which inhibition of growth (MIC) required 1.56 µg/mL (≈ 4.71 µM). To `COc1ccc(Cn2cc(Cn3ccc4cncnc43)nn2)cc1` belongs over 25 µg/mL. The same measure for `O=[N+]([O-])c1ccc(-n2cc(Cn3ccc4cncnc43)nn2)cc1`: over 25 µg/mL; for `Fc1ccc(Oc2ccc(Cn3cc(Cn4ccc5cncnc54)nn3)cc2)cc1`: 3.12 µg/mL (≈ 7.79 µM); for `Fc1ccccc1Cn1cc(Cn2ccc3cncnc32)nn1`: over 25 µg/mL. To `O=[N+]([O-])c1ccc(Cn2cc(Cn3ccc4cncnc43)nn2)cc1` belongs over 25 µg/mL. `Brc1ccccc1Cn1cc(Cn2ccc3cncnc32)nn1`: the MIC is over 25 µg/mL. For the compound `Clc1ccc(Oc2ccccc2)cc1-n1cc(Cn2ccc3cncnc32)nn1`, the lowest concentration to inhibit growth (MIC) was 6.25 µg/mL (≈ 15.5 µM).

On to `CCOC(=O)/C=C/Cn1cc(Cn2ccc3cncnc32)nn1`, for which the MIC was over 25 µg/mL.

On to `Cc1onc(-c2ccccc2)c1Cn1cc(Cn2ccc3cncnc32)nn1`, for which the MIC came to 6.25 µg/mL (≈ 16.8 µM). To `Fc1ccc(Cn2cc(Cn3ccc4cncnc43)nn2)cc1` belongs over 25 µg/mL; to `C=CCn1cc(Cn2ccc3cncnc32)nn1`, 6.25 µg/mL (≈ 26 µM). `Oc1ccccc1-n1cc(Cn2ccc3cncnc32)nn1` had an MIC of 6.25 µg/mL (≈ 21.4 µM). Regarding `c1ccc(Cn2cc(Cn3ccc4cncnc43)nn2)cc1`, the minimum inhibitory concentration (MIC) was over 25 µg/mL. To `Clc1ccc(-n2cc(Cn3ccc4cncnc43)nn2)cc1` belongs 25 µg/mL (≈ 80.5 µM). To `O=c1oc2ccccc2cc1-n1cc(Cn2ccc3cncnc32)nn1` belongs 3.12 µg/mL (≈ 9.06 µM). To `CO[C@H]1/C=C/O[C@@]2(C)Oc3c(C)c(O)c4c(O)c(c(/C=N/N5CCN(C)CC5)c(O)c4c3C2=O)NC(=O)/C(C)=C\C=C\[C@H](C)[C@H](O)[C@@H](C)[C@@H](O)[C@@H](C)[C@H](OC(C)=O)[C@@H]1C` [RIFAMPIN] belongs 0.2 µg/mL (≈ 0.243 µM); to `c1ccc(-c2cc(Cn3cc(Cn4ccc5cncnc54)nn3)on2)cc1`, 0.78 µg/mL (≈ 2.18 µM); to `COC(=O)CCn1cc(Cn2ccc3cncnc32)nn1`, 1.56 µg/mL (≈ 5.45 µM). `CC[C@@H](CO)NCCN[C@@H](CC)CO` [ETHAMBUTOL] yielded an MIC of 1.56 µg/mL (≈ 7.64 µM).

`NNC(=O)c1ccncc1` [ISONIAZID]: 0.1 µg/mL (≈ 0.729 µM) was the least that counted as inhibitory (MIC). Consider `Brc1ccc(Cn2cc(Cn3ccc4cncnc43)nn2)cc1`, for which the MIC is over 25 µg/mL. To `Fc1cccc(-n2cc(Cn3ccc4cncnc43)nn2)c1` belongs over 25 µg/mL.

The values above are taken from ChEMBL document CHEMBL4371020, “Synthesis and biological evaluation of 1H-pyrrolo[2,3-d]pyrimidine-1,2,3-triazole derivatives as novel anti-tubercular agents” (2019).
